Values quoted from earlier work, collected in US12434072B2, “Methods and systems for neural stimulation via visual, auditory and peripheral nerve stimulations” (Cognito Therapeutics, Inc., priority 2016, dated 2025).

Key:
[1] = 70 kg adult
[2] = human clinical trials; low (tracer) doses

SMILES	Estimated absorbed radiation dose, Adrenals [1] [rad/mCi]	Estimated absorbed radiation dose, Brain [1] [rad/mCi]	Estimated absorbed radiation dose, Breasts [1] [rad/mCi]	Estimated absorbed radiation dose, Gallbladder Wall [1] [rad/mCi]	Estimated absorbed radiation dose, Heart Wall [1] [rad/mCi]	Estimated absorbed radiation dose, Kidneys [1] [rad/mCi]	Estimated absorbed radiation dose, Liver [1] [rad/mCi]	Estimated absorbed radiation dose, Lower Large Intestine Wall [1] [rad/mCi]	Estimated absorbed radiation dose, Lungs [1] [rad/mCi]	Estimated absorbed radiation dose, Muscle [1] [rad/mCi]	Estimated absorbed radiation dose, Ovaries [1] [rad/mCi]	Estimated absorbed radiation dose, Pancreas [1] [rad/mCi]	Estimated absorbed radiation dose, Red marrow [1] [rad/mCi]	Estimated absorbed radiation dose, Skin [1] [rad/mCi]	Estimated absorbed radiation dose, Small Intestine [1] [rad/mCi]	Estimated absorbed radiation dose, Spleen [1] [rad/mCi]	Estimated absorbed radiation dose, Testes [1] [rad/mCi]	Estimated absorbed radiation dose, Thymus [1] [rad/mCi]	Estimated absorbed radiation dose, Thyroid [1] [rad/mCi]	Estimated absorbed radiation dose, Total Body [1] [rad/mCi]	also measured
OC[C@H]1O[C@@H](O)[C@H]([18F])[C@@H](O)[C@@H]1O [FDG]	0.048	0.07	0.034	0.049	0.22	0.074	0.058	0.051	0.064	0.039	0.053	0.096	0.047	0.03	0.047	0.14	0.041	0.044	0.039	0.043	Critical organ for radiation dose [1]: urinary bladder wall, followed by heart, spleen and pancreas; Estimated absorbed radiation dose, Upper Large Intestine Wall [1]: 0.046 rad/mCi; Estimated absorbed radiation dose, Urinary bladder wall [1]: 0.32 rad/mCi; Estimated absorbed radiation dose, Uterus [1]: 0.062 rad/mCi
CNc1ccc(/C=C/c2ccc(OCCOCCOCC[18F])nc2)cc1 [18F-AV-45]	0.05	0.037	0.023	0.529	0.048	0.048	0.238	0.103	0.032	0.032	0.065	0.053	0.053	0.022	0.242	0.033	0.025	0.027	0.025	0.043	Effective Dose ([1]; Effective Dose): 0.069 rad/mCi; Estimated absorbed radiation dose, Upper Large Intestine Wall [1]: 0.276 rad/mCi; Estimated absorbed radiation dose, Urinary bladder wall [1]: 0.1 rad/mCi; Estimated absorbed radiation dose, Uterus [1]: 0.058 rad/mCi; Most common adverse events [2]: headache, injection site reactions (injection site rash, extravasation, hemorrhage, irritation and puncture site hematoma), musculoskeletal pain, fatigue, and nausea
